Source: US20190216772A1, “Antioxidant-Containing Food Composition for Use in Enhancing Antiviral Immunity in Companion Animals” (priority 2008, published 2019)

Columns and labels:
Assay type in all cases: in vivo, dog
[1] = tested on: interferon mediated antiviral response; assay: GeneGo pathway analysis of differentially expressed genes in dogs fed lipoic acid; settings: dogs fed lipoic acid for 30 days; 150 ppm in food
Excerpt: (§1) Twenty dogs were fed for 30 days. Ten were fed an AAFCO level control food and 10 other dogs were fed the AAFCO level control food containing 150 ppm alpha-lipoic acid. At the end of the end of the 30 days whole blood samples were collected from each dog in Paxgene tubes.
(§2) Total RNAs were isolated from whole blood samples using the PAXgene RNA isolation kit. All measurements were done with the canine 2 Affymetrix genechips. For statistical analysis, all measurements were normalized with RMA. All analysis was preformed using Partek. An ANOVA t-test was performed for genes that are differentially expressed between the control and test foods. (at least a 20% change in expression with a pvalue<0.05)
(§3) Differentially expressed genes were analyzed with the GeneGo pathway analysis software.

[2] = tested on: IFNGR2; assay: Whole blood gene expression (canine 2 Affymetrix genechip) in dogs fed lipoic acid food for 30 days; settings: dogs fed control food containing 150 ppm alpha-lipoic acid for 30 days vs control food; whole blood RNA
Excerpt: as §1, §2, §3

[3] = tested on: EIF2AK2; assay: as above; settings: dogs fed control food containing 150 ppm alpha-lipoic acid for 30 days vs control food
Excerpt: as §1, §2, §3

[4] = tested on: RNASEL; assay: as above; settings: dogs fed control food containing 150 ppm alpha-lipoic acid for 30 days vs control food; whole blood RNA
Excerpt: as §1, §2, §3

[5] = tested on: IFNAR2; assay: as above; settings: dogs fed control food containing 150 ppm alpha-lipoic acid for 30 days vs control food; whole blood RNA
Excerpt: as §1, §2, §3

[6] = tested on: JAK2; assay: as above; settings: dogs fed control food containing 150 ppm alpha-lipoic acid for 30 days vs control food; whole blood RNA
Excerpt: as §1, §2, §3

[7] = tested on: IFR9; assay: as above; settings: dogs fed control food containing 150 ppm alpha-lipoic acid for 30 days vs control food; whole blood RNA
Excerpt: as §1, §2, §3

[8] = tested on: CREBBP; assay: as above; settings: dogs fed control food containing 150 ppm alpha-lipoic acid for 30 days vs control food; whole blood RNA
Excerpt: as §1, §2, §3

Q: Which “interferon mediated antiviral response (pathway analysis of differentially expressed genes)” value [1] does the source give for O=C(O)CCCCC1CCSS1 (stereo not drawn) [lipoic acid, alpha-lipoic acid] here?
A: Its value is “exhibited an interferon mediated antiviral response”.

Q: What about the “Fold Up-regulated, IFNGR2 (interferon-gamma receptor beta chain precursor)” value [2] of the same compound?
A: Its value is 1.2 fold.

Q: And the “Fold Up-regulated, EIF2AK2 (Interferon-induced double stranded RNA-activated protein)” value [3]?
A: The value was 1.4 fold.

Q: And the “Fold Up-regulated, RNASEL (2-5A-dependent ribonuclease)” value [4]?
A: The value was 1.5 fold.

Q: And the “Fold Up-regulated, IFNAR2 (interferon-alpha/beta receptor beta chain precursor)” value [5]?
A: Its value is 1.3 fold.

Q: And the “Fold Up-regulated, JAK2 (Tyrosine protein kinase JAK2)” value [6]?
A: Its value is 1.4 fold.

Q: And the “Fold Up-regulated, IFR9 (interferon regulatory factor 9)” value [7]?
A: The value was 1.3 fold.

Q: What about the “Fold Up-regulated, CREBBP (CREB-binding protein)” value [8] of the same compound?
A: Its value is 1.2 fold.
